According to patent US20230059463A1, “3-(2-BROMO-4-ALKYNYL-6-ALKOXYPHENYL)-SUBSTITUTED 5-SPIROCYCLOHEXYL-3-PYRROLIN-2-ONES AND THEIR USE AS HERBICIDES” (Bayer Aktiengesellschaft, priority 2019, published 2023):

Tests used:
Type in all cases: in vivo
Setaria viridis [1] = assay: Post-emergence herbicidal effect; details: 80 g/ha, post-emergence at one-leaf stage, assessed visually after about 3 weeks; 100% = plants have died, 0% = like control plants
Method: (§1) Seeds of monocotyledonous and dicotyledonous weed and crop plants are laid out in sandy loam soil in wood-fiber pots, covered with soil and cultivated in a greenhouse under good growth conditions. 2 to 3 weeks after sowing, the test plants are treated at the one-leaf stage. The compounds of the invention, formulated in the form of wettable powders (WP) or as emulsion concentrates (EC), are then sprayed onto the green parts of the plants as aqueous suspension or emulsion at a water application rate equating to 600 to 800 l/ha with addition of 0.2% wetting agent. After the test plants have been left to stand in the greenhouse under optimal growth conditions for about 3 weeks, the action of the preparations is assessed visually in comparison to untreated controls (herbicidal action in per cent (%): 100% activity=the plants have died, 0% activity=like control plants).

Digitaria sanguinalis = assay: Post-emergence herbicidal effect; details: 80 g/ha, post-emergence at one-leaf stage, assessed visually after about 3 weeks; 100% = plants have died, 0% = like control plants
Method: as §1

Echinochloa crus-galli [2] = assay: Post-emergence herbicidal effect; details: 80 g/ha, post-emergence at one-leaf stage, assessed visually after about 3 weeks; 100% = plants have died, 0% = like control plants
Method: as §1

Lolium rigidum [3] = assay: Post-emergence herbicidal effect; details: 80 g/ha, post-emergence at one-leaf stage, assessed visually after about 3 weeks; 100% = plants have died, 0% = like control plants
Method: as §1

Alopecurus myosuroides [4] = assay: Post-emergence herbicidal effect; details: 80 g/ha, post-emergence at one-leaf stage, assessed visually after about 3 weeks; 100% = plants have died, 0% = like control plants
Method: as §1

Setaria viridis [5] = assay: Pre-emergence herbicidal effect; details: 80 g/ha, scored visually after 3 weeks, 100% = plants have died, 0% = like control plants
Excerpt: (§2) Seeds of monocotyledonous and dicotyledonous weed plants and crop plants are laid out in sandy loam soil in wood-fiber pots and covered with soil. The compounds of the invention, formulated in the form of wettable powders (WP) or as emulsion concentrates (EC), are then applied to the surface of the covering soil as aqueous suspension or emulsion at a water application rate equating to 600 to 800 L/ha with addition of 0.2% wetting agent.
(§3) After the treatment, the pots are placed in a greenhouse and kept under good growth conditions for the trial plants. The damage to the test plants is scored visually after a test period of 3 weeks by comparison with untreated controls (herbicidal activity in percent (%): 100% activity=the plants have died, 0% activity=like control plants).

Avena fatua = assay: Pre-emergence herbicidal effect; details: 80 g/ha, scored visually after 3 weeks, 100% = plants have died, 0% = like control plants
Excerpt: as §2, §3

Hordeum murinum [6] = assay: Pre-emergence herbicidal effect; details: 80 g/ha, scored visually after 3 weeks, 100% = plants have died, 0% = like control plants
Excerpt: as §2, §3

Echinochloa crus-galli [7] = assay: Pre-emergence herbicidal effect; details: 80 g/ha, scored visually after 3 weeks, 100% = plants have died, 0% = like control plants
Excerpt: as §2, §3

Lolium rigidum [8] = assay: Pre-emergence herbicidal effect; details: 80 g/ha, scored visually after 3 weeks, 100% = plants have died, 0% = like control plants
Excerpt: as §2, §3

Alopecurus myosuroides [9] = assay: Pre-emergence herbicidal effect; details: 80 g/ha, scored visually after 3 weeks, 100% = plants have died, 0% = like control plants
Excerpt: as §2, §3

Hordeum murinum [10] = assay: Post-emergence herbicidal effect; details: 80 g/ha, post-emergence at one-leaf stage, assessed visually after about 3 weeks; 100% = plants have died, 0% = like control plants
Method: as §1

SMILES	Post-emergence action against SETVI (herbicidal action in per cent) (Setaria viridis [1]) [%]	Post-emergence action against DIGSA (herbicidal action in per cent) (Digitaria sanguinalis) [%]	Post-emergence action against ECHCG (herbicidal action in per cent) (Echinochloa crus-galli [2]) [%]	Post-emergence action against LOLRI (herbicidal action in per cent) (Lolium rigidum [3]) [%]	Post-emergence action against ALOMY (herbicidal action in per cent) (Alopecurus myosuroides [4]) [%]	Pre-emergence action against SETVI (herbicidal activity in percent) (Setaria viridis [5]) [%]	Pre-emergence action against AVEFA (herbicidal activity in percent) (Avena fatua) [%]	Pre-emergence action against HORMU (herbicidal activity in percent) (Hordeum murinum [6]) [%]	Pre-emergence action against ECHCG (herbicidal activity in percent) (Echinochloa crus-galli [7]) [%]	Pre-emergence action against LOLRI (herbicidal activity in percent) (Lolium rigidum [8]) [%]	Pre-emergence action against ALOMY (herbicidal activity in percent) (Alopecurus myosuroides [9]) [%]	Post-emergence action against HORMU (herbicidal action in per cent) (Hordeum murinum [10]) [%]
C#Cc1cc(Br)c(C2=C(OC(=O)OCC)C3(CCCC(OCCC)C3)NC2=O)c(OC)c1 (centres unmarked) [Example 1.1.03]	100	90	90	80	80	100	90	90	100	100	90	
C#Cc1cc(Br)c(C2=C(OC(=O)C(C)C)C3(CCCC(OCCC)C3)NC2=O)c(OC)c1 (centres unmarked) [Example 1.1.04]	100	90	80	80	90	100	90	90	100	100	100	
C#Cc1cc(Br)c(C2=C(O)C3(CCCC(OCCOC)C3)NC2=O)c(OC)c1 (centres unmarked) [Example 1.1.05]	90	80	80	80	90	100	90	90	100	100	90	
C#Cc1cc(Br)c(C2=C(OC(=O)OCC)C3(CCCC(OCCOC)C3)NC2=O)c(OC)c1 (centres unmarked) [Example 1.1.07]	90	90	80	80	80	100	90	90	100	100	90	
C#Cc1cc(Br)c(C2=C(OC(=O)C(C)C)C3(CCCC(OCCOC)C3)NC2=O)c(OC)c1 (centres unmarked) [Example 1.1.08]	90	90	80	90	90	100	90	90	100	100	100	
CC#Cc1cc(Br)c(C2=C(O)C3(CCCC(OCCC)C3)NC2=O)c(OC)c1 (centres unmarked) [Example 1.1.09, 3-[2-Bromo-6-methoxy-4-(prop-1-yn-1-yl)phenyl]-7-propoxy-1-azaspiro[4.5]decane-2,4-dione]	90		90	90	90	100	100	100	100	100	100	100
CC#Cc1cc(Br)c(C2=C([O-])C3(CCCC(OCCC)C3)NC2=O)c(OC)c1.[Na+] (centres unmarked) [Example 1.1.10]	90		100	90	90	100	100	100	100	100	90	100
CC#Cc1cc(Br)c(C2=C(OC(=O)OCC)C3(CCCC(OCCC)C3)NC2=O)c(OC)c1 (centres unmarked) [Example 1.1.11, 3-[2-Bromo-6-methoxy-4-(prop-1-yn-1-yl)phenyl]-2-oxo-7-propoxy-1-azaspiro[4.5]dec-3-en-4-yl ethyl carbonate]												100
CC#Cc1cc(Br)c(C2=C(OC(=O)C(C)C)C3(CCCC(OCCC)C3)NC2=O)c(OC)c1 (centres unmarked) [Example 1.1.12]						100	90	100	100	100	100	
CC#Cc1cc(Br)c(C2=C(O)C3(CCCC(OCCOC)C3)NC2=O)c(OC)c1 (centres unmarked) [Example 1.1.13]	100		100	100	100	100	100	100	100	100	100	100
CC#Cc1cc(Br)c(C2=C([O-])C3(CCCC(OCCOC)C3)NC2=O)c(OC)c1.[Na+] (centres unmarked) [Example 1.1.14]	90		90	90	80	100	100	100	100	100	100	80
COCCOC1CCCC2(C1)NC(=O)C(c1c(Br)cc(C#CBr)cc1OC)=C2O (centres unmarked) [Example 1.1.23]	100	80	90	80	90	100				90	90	
CCOC(=O)OC1=C(c2c(Br)cc(C#CBr)cc2OC)C(=O)NC12CCCC(OCCOC)C2 (centres unmarked) [Example 1.1.25]	90	80	90	80	90	100				90	80	
